{
  "source": "ChEMBL document CHEMBL5537181",
  "about": "(J Med Chem, 2024)",
  "key": {"[1]": {"test": "Antagonist activity at human alpha9N152G mutant alpha10 nAChR expressed in acetylcholine-induced Xenopus laevis oocytes assessed as inhibition of acetylcholine-induced current at 1:3 ratio of protein by two electrode voltage-clamp assay", "type": "cell-based", "details": "Oocyte"}, "[2]": {"molecular_target": "T1, Neuronal acetylcholine receptor; alpha9/alpha10 (Homo sapiens) (UniProt Q9UGM1+Q9GZZ6)", "test": "Antagonist activity at human alpha9alpha10 nAChR expressed in acetylcholine-induced Xenopus laevis oocytes assessed as inhibition of acetylcholine-induced current at 30 nM at -80 mV holding potential by two electrode voltage-clamp assay", "type": "cell-based", "details": "Oocyte, filed as antagonist"}, "[3]": {"molecular_target": "T2, Potassium voltage-gated channel subfamily KQT member 3 (Homo sapiens) (UniProt O43525)", "T2 sequence (whole entry)": "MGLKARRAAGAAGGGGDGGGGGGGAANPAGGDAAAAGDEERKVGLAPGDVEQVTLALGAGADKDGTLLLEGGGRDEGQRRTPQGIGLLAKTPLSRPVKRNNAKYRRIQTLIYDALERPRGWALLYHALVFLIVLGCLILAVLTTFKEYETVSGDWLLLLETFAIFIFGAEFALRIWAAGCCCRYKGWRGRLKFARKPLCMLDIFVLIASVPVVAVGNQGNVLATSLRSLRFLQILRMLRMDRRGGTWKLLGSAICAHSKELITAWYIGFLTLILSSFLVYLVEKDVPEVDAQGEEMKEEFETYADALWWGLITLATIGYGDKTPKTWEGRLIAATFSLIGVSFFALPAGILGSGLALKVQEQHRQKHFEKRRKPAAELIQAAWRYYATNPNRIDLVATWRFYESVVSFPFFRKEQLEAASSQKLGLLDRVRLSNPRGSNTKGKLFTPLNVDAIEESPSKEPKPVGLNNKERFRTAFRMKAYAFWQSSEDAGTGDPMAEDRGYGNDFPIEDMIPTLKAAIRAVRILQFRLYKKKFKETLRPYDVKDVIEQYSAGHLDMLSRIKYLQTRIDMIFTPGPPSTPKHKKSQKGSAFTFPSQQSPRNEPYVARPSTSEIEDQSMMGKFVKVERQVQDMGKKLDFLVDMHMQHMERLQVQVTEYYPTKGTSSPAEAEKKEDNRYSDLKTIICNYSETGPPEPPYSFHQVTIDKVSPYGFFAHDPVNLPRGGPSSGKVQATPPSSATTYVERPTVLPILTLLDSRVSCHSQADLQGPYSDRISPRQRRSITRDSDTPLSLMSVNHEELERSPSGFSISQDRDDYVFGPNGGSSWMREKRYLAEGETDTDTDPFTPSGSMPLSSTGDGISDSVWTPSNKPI", "test": "Inhibition of KCNQ3 (unknown origin) at 1 uM"}, "Rattus norvegicus [4]": {"test_system": "Rattus norvegicus", "test": "Analgesic activity in Chronic constriction injury rat model assessed as increase in paw withdrawal latency at 250 microg/kg,IM administration and measured for 0.5 to 48 hrs", "type": "functional, organism-based", "details": "dose 250.0 µg/kg, time 0.5-48 hrs"}, "[5]": {"molecular_target": "T1, Neuronal acetylcholine receptor; alpha9/alpha10 (Homo sapiens)", "test": "Antagonist activity at human alpha9alpha10 nAChR expressed in acetylcholine-induced Xenopus laevis oocytes assessed as inhibition of acetylcholine-induced current at 30 nM at -40 mV holding potential by two electrode voltage-clamp assay", "type": "cell-based", "details": "Oocyte, filed as antagonist"}, "[6]": {"molecular_target": "Sodium channel protein type 10 subunit alpha (Homo sapiens) (UniProt Q9Y5Y9)", "sequence (Q9Y5Y9 whole entry, looked up)": "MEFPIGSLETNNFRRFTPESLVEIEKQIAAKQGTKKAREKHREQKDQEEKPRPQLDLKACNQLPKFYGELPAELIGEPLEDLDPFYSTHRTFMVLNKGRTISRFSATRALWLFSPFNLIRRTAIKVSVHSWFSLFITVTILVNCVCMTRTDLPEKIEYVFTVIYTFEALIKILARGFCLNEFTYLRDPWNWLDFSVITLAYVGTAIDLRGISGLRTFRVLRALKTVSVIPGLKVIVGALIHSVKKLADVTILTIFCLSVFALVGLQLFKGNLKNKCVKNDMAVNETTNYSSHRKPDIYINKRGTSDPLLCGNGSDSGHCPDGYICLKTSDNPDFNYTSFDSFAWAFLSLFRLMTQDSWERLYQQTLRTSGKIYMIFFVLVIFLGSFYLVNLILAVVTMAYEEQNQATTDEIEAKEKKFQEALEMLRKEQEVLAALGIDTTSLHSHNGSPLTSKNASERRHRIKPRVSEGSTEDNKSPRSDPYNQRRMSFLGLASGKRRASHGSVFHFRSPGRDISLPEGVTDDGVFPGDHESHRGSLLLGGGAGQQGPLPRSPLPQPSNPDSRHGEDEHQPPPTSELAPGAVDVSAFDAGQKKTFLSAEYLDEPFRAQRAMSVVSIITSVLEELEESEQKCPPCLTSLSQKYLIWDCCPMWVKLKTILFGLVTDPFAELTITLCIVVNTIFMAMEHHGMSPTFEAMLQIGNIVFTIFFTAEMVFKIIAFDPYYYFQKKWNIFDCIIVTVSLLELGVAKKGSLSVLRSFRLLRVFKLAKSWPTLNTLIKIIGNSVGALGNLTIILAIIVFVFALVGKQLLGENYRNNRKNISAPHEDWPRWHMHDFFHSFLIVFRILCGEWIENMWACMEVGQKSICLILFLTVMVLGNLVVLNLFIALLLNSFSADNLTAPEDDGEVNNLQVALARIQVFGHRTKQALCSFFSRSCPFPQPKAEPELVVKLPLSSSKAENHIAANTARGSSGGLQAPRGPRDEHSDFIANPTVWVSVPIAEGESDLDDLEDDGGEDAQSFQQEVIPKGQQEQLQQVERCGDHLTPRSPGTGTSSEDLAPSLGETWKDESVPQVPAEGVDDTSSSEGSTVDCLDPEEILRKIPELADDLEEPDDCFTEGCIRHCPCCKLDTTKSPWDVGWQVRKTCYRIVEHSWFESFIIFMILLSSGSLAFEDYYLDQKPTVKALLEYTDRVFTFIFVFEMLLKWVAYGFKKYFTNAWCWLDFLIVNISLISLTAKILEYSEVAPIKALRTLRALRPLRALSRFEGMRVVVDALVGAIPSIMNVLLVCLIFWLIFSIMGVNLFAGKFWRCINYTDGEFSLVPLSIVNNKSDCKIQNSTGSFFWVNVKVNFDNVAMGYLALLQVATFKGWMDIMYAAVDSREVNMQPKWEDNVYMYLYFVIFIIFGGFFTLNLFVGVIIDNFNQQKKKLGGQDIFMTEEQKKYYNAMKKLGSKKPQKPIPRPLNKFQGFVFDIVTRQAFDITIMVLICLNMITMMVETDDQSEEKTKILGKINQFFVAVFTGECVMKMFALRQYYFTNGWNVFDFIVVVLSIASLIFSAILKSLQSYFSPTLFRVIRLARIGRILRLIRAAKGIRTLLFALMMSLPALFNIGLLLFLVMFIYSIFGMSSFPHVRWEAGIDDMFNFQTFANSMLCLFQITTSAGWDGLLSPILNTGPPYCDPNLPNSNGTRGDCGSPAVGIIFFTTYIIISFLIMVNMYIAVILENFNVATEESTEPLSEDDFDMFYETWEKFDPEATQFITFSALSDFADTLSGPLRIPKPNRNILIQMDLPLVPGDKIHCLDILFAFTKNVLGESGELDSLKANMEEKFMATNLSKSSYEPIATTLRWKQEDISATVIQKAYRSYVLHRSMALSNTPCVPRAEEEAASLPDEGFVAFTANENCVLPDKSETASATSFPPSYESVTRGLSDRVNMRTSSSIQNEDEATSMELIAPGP", "test": "Inhibition of Nav1.8 (unknown origin) at 1 uM"}, "[7]": {"molecular_target": "T3, Voltage-dependent N-type calcium channel subunit alpha-1B (Homo sapiens, UniProt Q00975)", "test": "Inhibition of human Cav2.2 channel transfected in HEK293T cells assessed as inhibition of Cav2.2-mediated Ba2+ current at 1 uM measured for 3 to 5 days by whole-cell patch clamp assay", "type": "cell-based", "details": "time 3-5 day"}, "[8]": {"molecular_target": "Nicotinic acetylcholine receptor alpha9/alpha10 (Rattus norvegicus, UniProt P43144+Q9JLB5)", "sequence (P43144 whole entry)": "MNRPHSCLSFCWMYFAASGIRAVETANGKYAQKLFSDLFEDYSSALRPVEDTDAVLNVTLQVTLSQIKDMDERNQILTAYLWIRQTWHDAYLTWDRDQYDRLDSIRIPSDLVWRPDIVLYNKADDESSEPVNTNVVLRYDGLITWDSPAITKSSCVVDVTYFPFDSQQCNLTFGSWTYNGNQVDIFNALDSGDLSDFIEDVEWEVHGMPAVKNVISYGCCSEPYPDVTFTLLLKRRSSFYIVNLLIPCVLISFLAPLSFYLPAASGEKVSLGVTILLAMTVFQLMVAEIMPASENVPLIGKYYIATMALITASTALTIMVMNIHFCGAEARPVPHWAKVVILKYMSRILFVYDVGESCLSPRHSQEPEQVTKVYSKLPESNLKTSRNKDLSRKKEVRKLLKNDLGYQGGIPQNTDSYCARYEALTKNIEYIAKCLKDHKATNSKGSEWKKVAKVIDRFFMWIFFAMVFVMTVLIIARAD", "sequence (Q9JLB5 whole entry)": "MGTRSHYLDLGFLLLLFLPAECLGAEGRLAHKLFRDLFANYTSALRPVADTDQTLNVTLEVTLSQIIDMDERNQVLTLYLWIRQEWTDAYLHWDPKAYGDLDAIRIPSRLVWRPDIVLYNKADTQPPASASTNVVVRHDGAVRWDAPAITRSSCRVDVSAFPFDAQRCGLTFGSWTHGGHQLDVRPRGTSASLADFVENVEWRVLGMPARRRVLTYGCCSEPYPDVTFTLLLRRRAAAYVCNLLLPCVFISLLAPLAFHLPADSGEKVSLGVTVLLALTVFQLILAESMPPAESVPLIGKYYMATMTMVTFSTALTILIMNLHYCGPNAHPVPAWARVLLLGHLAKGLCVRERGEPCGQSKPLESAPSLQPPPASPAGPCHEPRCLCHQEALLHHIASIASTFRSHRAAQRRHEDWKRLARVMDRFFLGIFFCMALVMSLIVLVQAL", "test": "Antagonist activity at rat wild type alpha9alpha10 nAChR expressed in acetylcholine-induced Xenopus laevis oocytes assessed as inhibition of acetylcholine-induced current at 1:1 ratio of protein by two electrode voltage-clamp assay", "type": "cell-based, Oocyte"}, "[9]": {"molecular_target": "Neuronal acetylcholine receptor subunit alpha-7 (Homo sapiens, UniProt P36544)", "sequence (P36544 whole entry)": "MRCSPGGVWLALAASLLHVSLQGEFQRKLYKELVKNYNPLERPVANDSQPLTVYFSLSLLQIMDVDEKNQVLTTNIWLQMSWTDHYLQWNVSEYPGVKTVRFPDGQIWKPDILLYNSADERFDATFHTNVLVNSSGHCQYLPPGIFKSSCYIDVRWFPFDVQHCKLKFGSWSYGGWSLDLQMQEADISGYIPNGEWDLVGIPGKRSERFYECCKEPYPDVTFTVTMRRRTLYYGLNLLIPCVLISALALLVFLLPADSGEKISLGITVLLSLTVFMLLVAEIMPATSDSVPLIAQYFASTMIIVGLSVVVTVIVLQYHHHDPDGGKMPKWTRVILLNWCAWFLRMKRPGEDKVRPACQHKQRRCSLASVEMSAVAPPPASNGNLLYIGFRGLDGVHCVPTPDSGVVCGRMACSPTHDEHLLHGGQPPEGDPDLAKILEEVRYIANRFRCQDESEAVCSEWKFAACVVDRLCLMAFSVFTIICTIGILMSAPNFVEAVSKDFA", "test": "Antagonist activity at human alpha7 nAChR expressed in acetylcholine-induced Xenopus laevis oocytes assessed as inhibition of acetylcholine-induced current at 30 nM by two electrode voltage-clamp assay", "type": "cell-based", "details": "Oocyte, filed as antagonist"}, "[10]": {"molecular_target": "Neuronal acetylcholine receptor; alpha4/beta2 (Rattus norvegicus) (UniProt P09483+P12390)", "test": "Antagonist activity at rat alpha4beta2 nAChR expressed in acetylcholine-induced Xenopus laevis oocytes assessed as inhibition of acetylcholine-induced current at 100 nM by two electrode voltage-clamp assay", "type": "cell-based", "details": "Oocyte"}, "[11]": {"molecular_target": "T3, Voltage-dependent N-type calcium channel subunit alpha-1B", "test": "Inhibition of human Cav2.2 channel transfected in HEK293T cells assessed as inhibition of Cav2.2-mediated Ba2+ current measured for 3 to 5 days by whole-cell patch clamp assay", "type": "cell-based"}, "Rattus norvegicus [12]": {"test_system": "Rattus norvegicus", "test": "Analgesic activity in Chronic constriction injury rat model assessed as decrease in hyperalgesia at 250 microg/kg,IM administrated every 2 hrs for 7 days", "type": "functional, organism-based", "details": "dose 250.0 µg/kg, time 7.0 day"}, "[13]": {"molecular_target": "T1, Neuronal acetylcholine receptor; alpha9/alpha10 (Homo sapiens)", "test": "Antagonist activity at human wild type alpha9alpha10 nAChR expressed in acetylcholine-induced Xenopus laevis oocytes assessed as inhibition of acetylcholine-induced current at 30 nM by two electrode voltage-clamp assay relative to control", "type": "cell-based", "details": "Oocyte, filed as antagonist"}, "[14]": {"molecular_target": "Neuronal acetylcholine receptor; alpha3/beta4 (Rattus norvegicus) (UniProt P04757+P12392)", "test": "Antagonist activity at rat alpha3beta4 nAChR expressed in acetylcholine-induced Xenopus laevis oocytes assessed as inhibition of acetylcholine-induced current at 100 nM by two electrode voltage-clamp assay relative to control", "type": "cell-based", "details": "Oocyte"}, "[15]": {"test": "Antagonist activity at human alpha9alpha10G152N mutant nAChR expressed in acetylcholine-induced Xenopus laevis oocytes assessed as inhibition of acetylcholine-induced current at 1:3 ratio of protein by two electrode voltage-clamp assay", "type": "cell-based", "details": "Oocyte"}, "[16]": {"molecular_target": "T4, Neuronal acetylcholine receptor; alpha9/alpha10 (Homo sapiens, UniProt Q9GZZ6+Q9UGM1)", "T4 sequence (Q9UGM1 whole entry)": "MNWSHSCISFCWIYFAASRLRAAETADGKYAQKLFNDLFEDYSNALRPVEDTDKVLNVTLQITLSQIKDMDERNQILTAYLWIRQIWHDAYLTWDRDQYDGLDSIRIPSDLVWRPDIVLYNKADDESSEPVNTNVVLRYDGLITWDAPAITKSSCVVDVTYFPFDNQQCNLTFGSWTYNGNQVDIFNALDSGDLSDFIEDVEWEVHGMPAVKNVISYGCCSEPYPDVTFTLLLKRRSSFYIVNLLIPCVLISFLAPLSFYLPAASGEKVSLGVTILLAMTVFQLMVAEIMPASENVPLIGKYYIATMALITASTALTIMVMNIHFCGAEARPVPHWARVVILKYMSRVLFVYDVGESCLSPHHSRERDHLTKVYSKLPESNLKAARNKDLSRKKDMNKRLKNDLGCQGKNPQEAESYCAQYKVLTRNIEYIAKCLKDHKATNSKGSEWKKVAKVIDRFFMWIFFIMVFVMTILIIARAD", "T4 sequence (Q9GZZ6 whole entry)": "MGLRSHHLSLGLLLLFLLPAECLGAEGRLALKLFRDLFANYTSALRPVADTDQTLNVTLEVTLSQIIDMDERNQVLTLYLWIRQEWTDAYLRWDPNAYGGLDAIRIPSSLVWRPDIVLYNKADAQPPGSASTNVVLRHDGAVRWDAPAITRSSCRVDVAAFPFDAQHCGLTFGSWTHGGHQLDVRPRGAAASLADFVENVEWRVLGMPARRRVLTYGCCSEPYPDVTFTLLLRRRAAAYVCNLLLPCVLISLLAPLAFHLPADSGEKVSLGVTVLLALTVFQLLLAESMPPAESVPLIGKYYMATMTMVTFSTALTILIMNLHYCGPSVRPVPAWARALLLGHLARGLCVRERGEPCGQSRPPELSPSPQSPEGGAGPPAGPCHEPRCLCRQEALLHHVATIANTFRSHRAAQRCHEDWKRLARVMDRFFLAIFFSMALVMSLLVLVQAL", "test": "Antagonist activity at human wild type alpha9alpha10 nAChR expressed in acetylcholine-induced Xenopus laevis oocytes assessed as inhibition of acetylcholine-induced current at 1:1 ratio of protein by two electrode voltage-clamp assay", "type": "cell-based, Oocyte"}, "[17]": {"molecular_target": "T4, Neuronal acetylcholine receptor; alpha9/alpha10", "test": "Antagonist activity at human wild type alpha9alpha10 nAChR expressed in acetylcholine-induced Xenopus laevis oocytes assessed as inhibition of acetylcholine-induced current at 1:3 ratio of protein by two electrode voltage-clamp assay", "type": "cell-based, Oocyte"}, "[18]": {"molecular_target": "Sodium channel protein type 9 subunit alpha (Homo sapiens) (UniProt Q15858)", "test": "Inhibition of Nav1.7 (unknown origin) at 1 uM"}, "[19]": {"molecular_target": "Neuronal acetylcholine receptor subunit alpha-7 (Rattus norvegicus) (UniProt Q05941)", "sequence (Q05941 whole entry)": "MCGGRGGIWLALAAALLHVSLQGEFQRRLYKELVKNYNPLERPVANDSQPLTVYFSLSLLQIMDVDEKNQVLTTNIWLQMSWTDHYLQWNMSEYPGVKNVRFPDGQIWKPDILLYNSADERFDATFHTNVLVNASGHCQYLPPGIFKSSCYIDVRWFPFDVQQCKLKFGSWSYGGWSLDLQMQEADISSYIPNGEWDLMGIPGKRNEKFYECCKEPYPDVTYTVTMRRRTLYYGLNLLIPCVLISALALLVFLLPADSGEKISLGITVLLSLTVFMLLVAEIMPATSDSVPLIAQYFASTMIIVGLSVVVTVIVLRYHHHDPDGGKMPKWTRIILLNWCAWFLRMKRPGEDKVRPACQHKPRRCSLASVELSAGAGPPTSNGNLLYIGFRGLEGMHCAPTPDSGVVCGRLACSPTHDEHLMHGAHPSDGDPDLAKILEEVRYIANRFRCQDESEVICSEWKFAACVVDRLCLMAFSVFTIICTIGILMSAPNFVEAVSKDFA", "test": "Antagonist activity at rat alpha7 nAChR expressed in acetylcholine-induced Xenopus laevis oocytes assessed as inhibition of acetylcholine-induced current at 30 nM by two electrode voltage-clamp assay relative to control", "type": "cell-based", "details": "Oocyte"}, "[20]": {"test": "Antagonist activity at human alpha9alpha10G152N mutant nAChR expressed in acetylcholine-induced Xenopus laevis oocytes assessed as inhibition of acetylcholine-induced current at 1:1 ratio of protein by two electrode voltage-clamp assay", "type": "cell-based", "details": "Oocyte"}, "Rattus norvegicus [21]": {"test_system": "Rattus norvegicus", "test": "Analgesic activity in Chronic constriction injury rat model assessed as decrease in hyperalgesia at 250 microg/kg,IM administrated every 2 hrs for 14 days", "type": "functional, organism-based", "details": "dose 250.0 µg/kg, time 14.0 day"}},
  "note": "Calls of active or inactive are those of the source. The rule behind the calls is not given here.",
  "data": [
    {"smiles": "CC[C@H](C)[C@H](NC(=O)[C@H](CCCNC(=N)N)NC(=O)[C@H](CCCNC(=N)N)NC(=O)[C@H](Cc1ccc(O)cc1)NC(=O)[C@H](CCCNC(=N)N)NC(=O)[C@H](CCCNC(=N)N)NC(=O)[C@H](CCCNC(=N)N)NC(=O)[C@H](CCCNC(=N)N)NC(=O)[C@H](CC(=O)O)NC(=O)[C@H](Cc1ccc(O)cc1)NC(=O)[C@@H]1CCCN1C(=O)[C@H](CO)NC(=O)[C@H](CCCNC(=N)N)NC(=O)[C@H](Cc1ccc(O)cc1)NC(=O)[C@H](CCCNC(=N)N)NC(=O)CN)C(=O)N[C@H](C(=O)N[C@@H](CC(=O)O)C(N)=O)[C@@H](C)O", "values": [
      {"measurement": "IC50", "setting": "[1]", "result": 8.8, "unit": "nM"},
      {"measurement": "inhibition", "setting": "[2]", "result": "Active"},
      {"measurement": "inhibition", "setting": "[3]", "result": "inactive"},
      {"measurement": "Activity", "setting": "Rattus norvegicus [4]", "result": "Active"},
      {"measurement": "inhibition", "setting": "[5]", "result": "Active"},
      {"measurement": "inhibition", "setting": "[6]", "result": "inactive"},
      {"measurement": "inhibition", "setting": "[7]", "result": "inactive"},
      {"measurement": "IC50", "setting": "[8]", "result": 18.3, "unit": "nM"},
      {"measurement": "inhibition", "setting": "[9]", "result": 40, "unit": "%"},
      {"measurement": "inhibition", "setting": "[10]", "result": "inactive"},
      {"measurement": "IC50", "setting": "[11]", "result": 4.6, "unit": "nM"},
      {"measurement": "Activity", "setting": "Rattus norvegicus [12]", "result": "Active"},
      {"measurement": "inhibition", "setting": "[13]", "result": 50, "unit": "%"},
      {"measurement": "inhibition", "setting": "[14]", "result": 20, "unit": "%"},
      {"measurement": "IC50", "setting": "[15]", "result": 21, "unit": "nM"},
      {"measurement": "IC50", "setting": "[16]", "result": 25.7, "unit": "nM"},
      {"measurement": "IC50", "setting": "[17]", "result": 5, "unit": "nM"},
      {"measurement": "inhibition", "setting": "[18]", "result": "inactive"},
      {"measurement": "inhibition", "setting": "[19]", "result": 10, "unit": "%"},
      {"measurement": "IC50", "setting": "[20]", "result": 25.2, "unit": "nM"},
      {"measurement": "Activity", "setting": "Rattus norvegicus [21]", "result": "Active"}
    ]}
  ]
}
